Assay results published in patent US9555086B2, “Compositions and methods for inducing an immune response” (The Regents of the University of Michigan, priority 2010, dated 2017).
Entries after “also recorded” stand apart in the source; their conditions may differ.

What was measured:
CD11c+DCs = test: IL-23 and IL-6 production in LPS-stimulated bone marrow-derived CD11c+DCs (ELISA); type: cell-based, mouse; settings: LPS-treated DCs (100 ng/ml LPS)
Protocol: DBA/1 bone marrow-derived CD11c+DCs were cultured with or without 100 ng/ml LPS in the presence or absence of ISL-positive or ISL-negative 15mer peptides (50 μg/ml). Supernatants were collected at different time points and assayed for IL-23 and IL-6 content by ELISA.
(§1) To determine the rate of NO production, cells were loaded with 20 μM of the fluorescent NO probe 4,5-diaminofluorescein diacetate (DAF-2DA) and the fluorescence level was recorded every 5 minutes over a period of 500 minutes using a Fusion αHT system (PerkinElmer Life Sciences) at an excitation wavelength of 488 nm and emission wavelength of 515 nm. To determine IDO enzymatic activity, the generation of its product, kynurenine was measured (Takikawa et al. 1988. J Biol Chem 263:2041-2048.; herein incorporated by reference in its entirety). Cytokine concentrations were measured in cell culture supernatants using a Luminex platform (Millipore Corporation, Danvers, Mass.). In some experiments, cytokines were determined using ELISA (Quantikine®, R&D Systems, Minneapolis, Minn.) following the manufacture's instruction.

trypsin and chymotrypsin = test: Trypsin/chymotrypsin stability assay; settings: after 30 minutes, 37° C., pH 8
CD4+CD25+Foxp3+ Treg = test: Treg differentiation in DC/CD4+ T cell co-culture; type: cell-based, mouse; settings: 50 μg/ml peptide; for Treg differentiation (CD4+CD25+Foxp3+ abundance): DCs co-cultured with naïve CD4+CD25−CD62L+CD44− T cells, 5 days
Protocol: (A) DBA/1 bone marrow-derived CD11c+DCs were cultured overnight with 50 μg/ml SL ligand 65-79*0401 or ISL-negative control 65-79*0402, or medium. Syngeneic splenic CD4+ T cells were then added to the culture, and incubated with anti-CD3 and TGF-β for 5 days. On the left, flow cytometry dot plots showing percentages of CD25+Foxp3+ cells obtained from gated CD4+ T cells in each treatment. Each plot is representative of three experiments. On the right, bar graphs present results as mean percentage±SD of replicate samples. (B) Cultures were performed as in (A), with the exception that CD4+CD25− CD62L+CD44− naïve T cells, instead of CD4+ T cells were added to the CD11c+DCs. (C) DBA/1 bone marrow-derived CD11c+DCs were incubated overnight with 2 μg/ml tetramers (ISL-positive T-DRB1*0401, versus ISL-negative T-DRB1*0301, or T-DRB1*1501). Syngeneic CD4+CD25−CD62L+CD44− naïve T cells, anti-CD3 and TGF-β were then added to the culture and incubated for 5 days and analyzed as above.
DBA/1 bone marrow-derived CD11c+DCs were placed in 24-well plates (BD Biosciences, San Jose, Calif.) at a density of 2.5×10^5 cells per well and cultured overnight with or without 50 μg/ml of peptidic (65-79*0401 or 65-79*0402), or 2 μg/ml of tetrameric (T-DR1*0401, T-DR1*0301, or T-DR1*1501) ligands at 37° C. On the following day, 5.0×10^5 CD4+ T cells or CD4+CD25−CD62L+CD44− naïve T cells, isolated as described above, were added to each well in addition to anti-CD3 antibodies (5 μg/ml) and rhTGFβ (2.5 ng/ml).
After 5 days in culture, cells were harvested and stained for flow cytometric analysis using FITC anti-mouse CD4 (clone […]), PE anti-mouse CD25 (clone PC61) and isotype controls (Biolegend, San Diego, Calif.). […] After permeabilization, cells were stained using an APC-conjugated anti-mouse Foxp3 antibody (clone FLK-16S from e-Bioscience, San Diego, Calif.) and analyzed by FACScalibur flow cytometer using the CELLQuest™ software (Becton Dickinson, Franklin Lakes, N.J.).

Th17 cells = test: ISL polarizing effect in vivo (CII in CFA immunization); design: species or system DBA/1 mice
Protocol: (A) DBA/1 mice were immunized with CII in CFA in the presence of PBS, 65-79*0401 or 65-79*0402. On day 7, cells from draining lymph nodes were isolated, cultured for 6 hours with PMA, Ionomycin and Brefeldin A and then stained with anti-mouse CD4, IL17A and IFN-γ as above. On the left: Representative dot plots showing percentages of IL17A+ and IFN-γ+ cells obtained from gated CD4+ cells. On the right, bar graphs showing results as mean±SD of duplicate experiments. (B) DBA/1 and CII-TCR Tg mice were immunized as in (A). On day 7, splenic cells were isolated and cultured with the synthetic peptide CII260-267 (5 μg/ml). Supernatants were collected every 24 hours and assayed for IL-17 levels by ELISA.
Mice were injected subcutaneously in the footpad with 100 μg of chicken collagen type II (CII) (Chondrex, Inc, Redmond, Wash.) emulsified in CFA (4 mg/ml). The inoculums contained 10 μg of either ISL-positive 65-79*0401 or ISL-negative 65-79*0402 ligands in PBS, or an equal volume of PBS alone. Animals were sacrificed 7 days after immunization. For Th17 quantification studies, inguinal and popliteal lymph nodes were collected and single cell suspensions were prepared. Unfractionated lymph node cells were cultured with PMA, Ionomycin and Brefeldin A for 6 hours as above. Cells were stained with FITC anti-mouse CD4 or isotype controls, followed by fixation and permeabilization using a Cytofix-Cytoperm™ kit. After permeabilization, intracellular staining was performed using PE-conjugated anti-mouse IL17A and APC-conjugated anti-mouse IFN-γ and cells were analyzed by flow cytometry as above. To measure IL-17 production, splenocytes from mice immunized as above were stimulated in vitro with 5 μg of CII259-273 peptide. At different time points thereafter, supernatants were collected and assayed for IL-17 by ELISA as above.

CD8+ and CD8− DC = test: Cytokine production by splenic DC subsets (Luminex); type: cell-based, mouse
Protocol: Splenic CD8+ and CD8− DC were isolated from DBA/1 mice as above and cultured in 96-well plates over time in the presence or absence of ISL-positive (65-79*0401) or ISL-negative (65-79*0402) peptides (50 μg/ml). At various time points thereafter, supernatants were collected and assayed for cytokine content, using the Luminex platform.
DBA/1 splenic unfractionated CD11c+ DCs (CD11c+), or their purified CD11c+CD8+ DCs (CD8+) or CD11c+CD8− DCs (CD8−) subsets were cultured with the ISL 65-79*0401 or ISL-negative control 65-79*0402 or medium. Supernatants were collected at different time points and assayed for cytokine content using a Luminex platform.
as §1

Substance: H-KDLLEQKRAAVDTYC-NH2 [65-79*0401]
- IL-23 production (CD11c+DCs): augmented
- degradation by trypsin/chymotrypsin (HPLC) (trypsin and chymotrypsin): degraded completely
- Treg expansion (CD4+CD25+Foxp3+ abundance) (CD4+CD25+Foxp3+ Treg; DCs co-cultured with CD4+ T cells, TGF-β, anti-CD3, 5 days): significantly inhibited
- Treg differentiation (CD4+CD25+Foxp3+ abundance) (CD4+CD25+Foxp3+ Treg): significantly inhibited
- Treg differentiation (CD4+CD25+Foxp3+ abundance) (CD4+CD25+Foxp3+ Treg; listed as 65-79*040): statistically significant, yet modest
- Th17 abundance in draining lymph nodes (Th17 cells; 10 μg co-administered with CII in CFA, footpad, day 7): dramatically increased
- CII-stimulated IL-17 production by splenocytes (Th17 cells; compared to mice co-immunized with 65-79*0402): significantly more robust
- frequency of Th1 (IFNγ-positive) cells (Th17 cells; draining lymph nodes, day 7): no change
- IL-6 / cytokine production (CD8+ and CD8− DC; CD11c+CD8+ DCs, 50 μg/ml peptide): no production of any cytokines; also recorded: not in the CD11c+CD8+ subset
- time point of IL-6 peak (CD8+ and CD8− DC; CD11c+CD8− DCs): 24 h
- IL-6 production (CD8+ and CD8− DC; CD11c+CD8− DCs, 50 μg/ml peptide): robust production
- production of other cytokines (IL-4, IL-10, IL-12, IL-1β, TGFβ) (CD8+ and CD8− DC; splenic DCs): did not show any increased production
